Measured values: patent US4124726A, “Anti-inflammatory agent of benzoyl derivative” (priority 1976, dated 1978)

Columns and labels:
[1] = tested on: carragheenin edema; assay: acute carragheenin edema inhibition (anti-inflammatory effect); type: in vivo, male rats
Experimental: The edema was induced by subcutaneous injection of 1% carraheenin suspension in saline to the hind paws of male rats weighing 150 to 180 g. Each sample was orally given at the dosage of 100 mg/kg just before the inoculation of carragheenin.

[2] = tested on: painful stretchings induced by acetic acid; assay: acetic acid induced stretching (analgesic effect); conditions: 100 mg/kg oral, 0.7% acetic acid i.p., mice
Experimental: Each sample was orally administrated in the dosage of 100 mg/kg before injection of acetic acid.

[3] = in vivo; conditions: mouse, po
Experimental: Each sample was dissolved in olive oil or dispersed in 1% Tween 20 aqueous solution.

[4] = tested on: platelet aggregation; assay: blood platelet aggregation inhibition, collagen as inducer; type: cell-based; conditions: 10^-4 mole, rabbit PRP
Excerpt: Blood platelet aggregation inhibiting effect
Male rabbits (Japan original white strain 3.3 to 3.6 kg) were anesthetized with Thiopental sodium and blood was sampled from the carotid artery.

Row | Structure (SMILES) | anti-inflammatory effect, inhibition rate (ED50), in words [1] | Analgesic (percentage diminution of times of painful stretchings) [2] [%] | LD50 at 72 h [3] [mg/kg] | Blood platelet agg. inh. (percentage inhibition of platelet aggregation) [4] [%] | Anti-inf. (edema inhibition rate) ([1]; 100 mg/kg oral, carragheenin edema, rats, Table 2) [%] | inhibition in vivo at 100 mg/kg ([1]; Rattus norvegicus, Table 2', 100 mg/kg oral, carragheenin edema, rats, read-out: Anti-inf.) [%] | Anti-inf. ([1]; Table 2', 100 mg/kg oral, carragheenin edema, rats)
1 | CCCCc1ccc(C(=O)c2ccccc2F)cc1 [Active ingredient No. 8, 4-n-butyl-2'-fluorobenzophenone] | especially high inhibition rate |  |  |  |  |  | 
2 | CCCCCc1ccc(C(=O)c2ccccc2F)cc1 [Active ingredient No. 9, 2-Fluoro-4'-n-amyl-benzophenone] | especially high inhibition rate |  |  |  |  |  | 
3 | Cc1cc(C)c(C(=O)c2ccccc2F)c(C)c1 [Active ingredient No. 11, 2-Fluoro-2',4',6'-trimethyl-benzophenone] | especially high inhibition rate |  |  |  |  |  | 
4 | O=C(c1ccccc1)c1ccccc1F [Active ingredient No. 15, 2-fluorobenzophenone] | especially high inhibition rate |  |  |  |  |  | 
5 | CCCCc1ccc(C(=O)c2ccccc2)cc1 [Active ingredient No. 19, 4-n-butyl benzophenone] | especially high inhibition rate |  |  |  |  |  | 
6 | CCCCc1ccc(C(=O)c2ccc(OC)cc2)cc1 [compound 18] |  | 20.1 | 2000 | 9.3 |  |  | 
7 | CCCCCc1ccc(C(=O)c2ccccc2)cc1 [compound 23] |  | 10.1 | 5000 | 13.8 |  |  | 
8 | CCCCCCc1ccc(C(=O)c2ccccc2)cc1 [compound 24] |  | 47.7 | 6000 | 10.5 |  |  | 
9 | CCCCCCCc1ccc(C(=O)c2ccccc2)cc1 [compound 25] |  | 48.6 | 8000 | 7.8 |  |  | 
10 | CCCCCCCCc1ccc(C(=O)c2ccccc2)cc1 [compound 26] |  | 35.9 | 10000 | 3.1 |  |  | 
11 | Cc1ccc(C(=O)c2ccccc2)c(C)c1C [compound 31] |  | 9.5 | 1500 | 18.2 |  |  | 
12 | CCc1ccc(C(=O)c2ccc(C)cc2)cc1 [compound 33] |  | 15.5 | 3000 | 20.5 |  |  | 
13 | CCCc1ccc(C(=O)c2ccc(C)cc2)cc1 [compound 34] |  | 12.1 | 5000 | 16.4 |  |  | 
14 | CCCCCCc1ccc(C(=O)c2ccc(C)cc2)cc1 [compound 36] |  |  | > 10000 | 15.1 |  |  | 
15 | CCCCc1ccc(C(=O)Cc2ccccc2)cc1 [compound 39] |  |  | > 10000 | 2.6 |  |  | 
16 | CCCCCc1ccc(C(=O)c2ccccc2C)cc1 [compound 41] |  | 14.6 | 3000 | 14.4 |  |  | 
17 | CCCCOc1ccc(C(=O)c2ccccc2)cc1 [compound 42] |  | 26.8 | 3000 | 4.4 |  |  | 
18 | CCCc1ccc(C(=O)Cc2ccccc2)cc1 [compound 49] |  | 18.2 | 8000 | 28.5 |  |  | 
19 | CCCCCCCCCCc1ccc(C(=O)Cc2ccccc2)cc1 [compound 50] |  |  | > 10000 | 8.7 |  |  | 
20 | CCCCCCc1ccc(C(=O)C(=O)c2ccccc2)cc1 [compound 56] |  | 20.5 | 10000 | 20.3 |  |  | 
21 | CCCCc1ccc(C(=O)c2ccc(Cl)cc2)cc1 [compound 64] |  | 6.6 | 3000 | 28.5 |  |  | 

Row | Structure (SMILES) | anti-inflammatory effect, inhibition rate (ED50), in words [1] | Analgesic (percentage diminution of times of painful stretchings) [2] [%] | LD50 at 72 h [3] [mg/kg] | Blood platelet agg. inh. (percentage inhibition of platelet aggregation) [4] [%] | Anti-inf. (edema inhibition rate) ([1]; 100 mg/kg oral, carragheenin edema, rats, Table 2) [%] | inhibition in vivo at 100 mg/kg ([1]; Rattus norvegicus, Table 2', 100 mg/kg oral, carragheenin edema, rats, read-out: Anti-inf.) [%] | Anti-inf. ([1]; Table 2', 100 mg/kg oral, carragheenin edema, rats)
22 | CCc1ccc(C(=O)c2ccccc2)cc1 [compound 66] |  | 15.7 | 2000 | 20.7 |  |  | 
23 | CC(C)Cc1ccc(C(=O)c2ccccc2)cc1 [compound 67] |  | 19.1 | 2000 | 18.5 |  |  | 
24 | Cc1ccc(C(=O)c2ccccc2)cc1C [compound 72] |  | 23.4 | 1000 | 28.7 |  |  | 
25 | COc1ccc(C(=O)c2ccccc2)c(OC)c1 [compound 74] |  | 24.2 | 5000 | 18.5 |  |  | 
26 | COc1ccc(OC)c(C(=O)c2ccccc2)c1 [compound 75] |  | 22.0 | 5000 | 30.7 |  |  | 
27 | COc1cc(OC)c(C(=O)c2ccccc2)c(OC)c1 [compound 76] |  | 13.9 | 2500 | 16.2 |  |  | 
28 | Cc1cc(C)c(C(=O)c2ccccc2)c(C)c1C [compound 79] |  | 20.8 | 1000 | 26.8 |  |  | 
29 | CCCCCCCc1ccc(C(=O)c2ccc(C)cc2)cc1 [compound 85] |  |  |  | 18.7 | 18.7 |  | 
30 | CCCCCc1ccc(C(=O)c2cccc(C)c2)cc1 [compound 89] |  | 4.3 | 10000 | 22.6 |  |  | 
31 | CCCCOc1ccc(C(=O)c2c(C)cc(C)cc2C)cc1 [compound 94] |  | 15.8 | 500 | 27.9 |  |  | 
32 | CCCCc1ccc(C(=O)c2ccc(CCC)cc2)cc1 [compound 98] |  | 16.4 | 4000 | 28.3 |  |  | 
33 | CCCCCc1ccc(C(=O)c2ccc(CCC)cc2)cc1 [compound 99] |  | 15.5 | 5000 | 29.5 |  |  | 
34 | CCCCCCc1ccc(C(=O)c2c(C)cc(C)cc2C)cc1 [compound 103] |  | 14.2 | 500 | 29.5 |  |  | 
35 | CCCc1ccc(C(=O)c2ccc(O)cc2)cc1 [compound 104] |  | 13.2 | 3000 | 25.3 |  |  | 
36 | CCCCCc1ccc(C(=O)c2ccc(O)cc2)cc1 [compound 105] |  | 14.1 | 4000 | 24.1 |  |  | 
37 | CCc1ccc(C(=O)c2ccc(CC)cc2)cc1 [compound 106] |  | 7.3 | 1000 | 20.3 |  |  | 
38 | O=C(c1ccccc1)c1ccccc1C(=O)c1ccccc1 [compound 113] |  | 14.5 | 4000 | 25.8 |  |  | 
39 | O=C(c1ccc(F)cc1)c1ccc(F)cc1 [compound 114] |  | 18.3 | 2000 | 26.8 |  |  | 
40 | CCCC(C)c1ccc(C(=O)c2ccccc2F)cc1 (centres unmarked) [compound 121] |  |  | 3000 |  |  | 64.5 | 
41 | CCCCCCCCc1ccc(C(=O)c2cccc(I)c2)cc1 [compound 161] |  |  | 5000 |  |  |  | 20.9
